The record followed here is patent US20230159509A1 (Amathus Therapeutics, Inc., priority 2020, published 2023).

The target of this experiment is T1, TRAP1 enzyme (Homo sapiens, UniProt Q12931).
T1 construct: 150 nM Trap1 enzyme was incubated with various concentrations of the test compound
T1 sequence (Q12931 60-704): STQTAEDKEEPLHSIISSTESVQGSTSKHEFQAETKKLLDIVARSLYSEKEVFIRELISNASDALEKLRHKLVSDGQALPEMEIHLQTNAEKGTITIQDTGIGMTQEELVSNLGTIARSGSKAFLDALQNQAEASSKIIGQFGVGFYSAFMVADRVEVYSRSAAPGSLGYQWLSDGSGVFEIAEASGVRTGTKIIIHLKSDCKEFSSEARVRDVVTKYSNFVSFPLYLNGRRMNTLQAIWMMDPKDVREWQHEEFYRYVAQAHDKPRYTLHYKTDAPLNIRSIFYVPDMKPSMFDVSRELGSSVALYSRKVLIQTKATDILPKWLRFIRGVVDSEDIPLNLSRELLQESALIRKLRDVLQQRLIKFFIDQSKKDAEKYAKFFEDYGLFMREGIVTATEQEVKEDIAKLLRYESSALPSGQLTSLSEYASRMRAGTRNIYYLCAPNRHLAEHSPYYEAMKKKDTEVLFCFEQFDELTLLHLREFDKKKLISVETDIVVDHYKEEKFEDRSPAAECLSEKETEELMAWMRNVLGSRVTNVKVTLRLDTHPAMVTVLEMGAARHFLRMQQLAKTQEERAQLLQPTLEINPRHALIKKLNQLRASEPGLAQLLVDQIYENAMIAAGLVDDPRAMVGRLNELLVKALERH
As to the kind of experiment: ADP Glo assay of TRAP1 ATPase activity. The class given is biochemical. In a few lines:
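Compound (0.79–100 μM) was preincubated 30 min at 37° C with 150 nM TRAP1 in 25 mM Pipes pH 7.5, 40 mM KCl, 0.05 mM MgCl2. Reaction started with 20 μM ATP, 60 min at 37° C. ADP measured by luminescence against a standard curve; activation fitted sigmoidally for EC50 and Emax.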
(In general: In ADP-Glo the light output rises with the ADP produced.)

In the case of `COc1ncc(NC(=O)c2csc(-c3ccccc3)n2)cc1S(=O)(=O)Nc1c(C)cccc1C` [compound 1178], the half-maximal effective concentration (EC50) (in general, the midpoint of the concentration-response curve) (concentration for half maximal activation, read-out: ADP GLO DRC: GeoMean EC50) was < 10 µM. Also, the Emax (in general, the size of the effect at its maximum, as opposed to the concentration needed) (maximal percent activation, read-out: ADP GLO DRC: Mean Emax) was 200 to 300%.
